Data as given in PMC10064984, “Anti-cyclooxygenase, anti-glycation, and anti-skin aging effect of Dendrobium officinale flowers’ aqueous extract and its phytochemical validation in aging” (Frontiers in Immunology, 2023).
Where “and” joins values, the source holds several entries; their conditions need not be identical. Identical values can stand only once. Like-named read-outs stand apart in the source and are kept apart here. Values belong to the molecule of their own block, whether it stands above or below them.

Assays:
Type in all cases: biochemical
[1] = ABTS·+ decolourisation capacity; settings: for IC50: mean ± SD, n = 3; for ABTS scavenging rate: 0.5mM series, replicate wells, listed as T17
Procedure, shortened: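 IC50 values were derived graphically from dose-inhibition curves, with % inhibition calculated versus a buffer-only (0.2 M phosphate, pH 7.4) control. Each sample (200 μl) reacted for 10 min with 100 μl ABTS·+ reagent pre-set to A729 0.8 ± 0.05, then absorbance at 729 nm was measured in triplicate.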

[2] = target: T1, COX-2 (Homo sapiens, UniProt P35354); assay: Anti-COX-2 assay (COX-2 Inhibitor Screening Kit)
T1 construct: purchased Beyotime S0168
T1 sequence (P35354 18-604): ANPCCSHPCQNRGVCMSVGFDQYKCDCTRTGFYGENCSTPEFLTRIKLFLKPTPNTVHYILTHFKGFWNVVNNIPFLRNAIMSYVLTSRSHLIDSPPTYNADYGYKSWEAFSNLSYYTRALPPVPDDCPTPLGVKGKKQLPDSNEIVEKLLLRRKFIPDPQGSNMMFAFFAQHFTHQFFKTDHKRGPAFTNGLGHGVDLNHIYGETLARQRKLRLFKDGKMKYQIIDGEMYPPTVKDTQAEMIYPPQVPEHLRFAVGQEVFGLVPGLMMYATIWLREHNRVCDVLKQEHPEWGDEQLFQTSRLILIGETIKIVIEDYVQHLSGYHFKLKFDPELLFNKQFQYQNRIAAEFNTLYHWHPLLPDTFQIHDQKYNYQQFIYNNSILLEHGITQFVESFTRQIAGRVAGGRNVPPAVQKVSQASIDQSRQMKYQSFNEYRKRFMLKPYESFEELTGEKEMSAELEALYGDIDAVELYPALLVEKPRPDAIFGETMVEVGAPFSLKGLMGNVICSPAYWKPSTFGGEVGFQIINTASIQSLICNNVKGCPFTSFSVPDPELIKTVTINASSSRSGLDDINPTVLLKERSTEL

[3] = DPPH· scavenging; settings: mean ± SD, n = 3;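 further: colourimetric DPPH radical scavenging in 96-well plates, absorbance read-out, percent inhibition relative to ethanol control absorbance, IC50 derived graphically from dose-inhibition curves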
[4] = Fluorescent AGEs formation in a BSA-fructose/glucose system; settings: for inhibition of fluorescent AGEs formation (BSA-抗糖化), single replicate: individual replicate; for inhibition of fluorescent AGEs formation (BSA-抗糖化), 平均 (mean): mean of 3 replicates; for IC50: mean ± SD, n = 3, read-out: BSA-glycation IC50
Procedure, shortened: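 Fluorescent AGE inhibition was measured in triplicate, correcting sample and control fluorescence for BSA-free blanks. Glycation used BSA incubated with D-fructose and D-glucose, with samples dissolved in DMSO:water (1:4).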

[5] = FRAP total antioxidant capacity;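 further: colourimetric FRAP kit assay read as absorbance in 96-well plates, values as mM FeSO4 via standard curve, EC1 being sample concentration matching 1.0 mmol/L FeSO4, Trolox positive control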
[6] = mean ± SD, n = 3, nd, not detected, read-out: COX-2 IC50
[7] = supplement sheet COX, read-out: COX-2 IC50, single replicate
[8] = lower part of sheet (compound series)

- IC50 [1]: 44.7 ± 1.52 µM
- inhibition at 31.25 µM ([2]; 31.25 μM, single replicates): 5.99%
- COX-2 inhibition ([2]; 31.25 μM, single replicates, listed as T14, 31.25 µM): 4.35%
- COX-2 inhibition ([2]; 62.5 μM, single replicates, listed as T14, 62.5 µM): -8.14% and 8.77% and -5.55%
- COX-2 inhibition ([2]; 125 μM, single replicates, listed as T14, 125 µM): 16.41% and 9.67% and 1.80%
- COX-2 inhibition ([2]; 250 μM, single replicates, listed as T14, 250 µM): 18.89% and 38.58% and 20.11%
- inhibition at 500 µM ([2]; 500 μM, single replicates): 53.6%
- COX-2 inhibition ([2]; 500 μM, single replicates, listed as T14, 500 µM): 61.95% and 42.08%
- inhibition at 1000 µM ([2]; 1000 μM, single replicates): 77.5%
- COX-2 inhibition ([2]; 1000 μM, single replicates, listed as T14, 1000 µM): 79.82% and 70.09%
- inhibition at 2000 µM ([2]; 2000 μM (2mM), single replicates): 76.1%
- COX-2 inhibition ([2]; 2000 μM (2mM), single replicates, listed as T14): 78.14% and 68.80%
- IC50 [2, 6]: 535 ± 150 µM
- IC50 [2, 7]: 515 µM and 396 µM and 694 µM
- IC50 [3]: 2370 µM
- IC50 [4]: 209 ± 3.1 µM
Molecule: COc1cc(-c2oc3cc(O)cc(O)c3c(=O)c2OC2OC(CO)C(O)C(O)C2O)ccc1O (stereo not drawn) [compound 32, Isorhamnetin-3-O-glucoside]
- inhibition of fluorescent AGEs formation (BSA-抗糖化), single replicate ([4]; 15.625 µM, listed as T14, 15.625 µM): 6.47% and 9.81% and 6.23%
- inhibition of fluorescent AGEs formation (BSA-抗糖化), 平均 (mean) ([4]; 15.625 µM): 7.50%
- inhibition of fluorescent AGEs formation (BSA-抗糖化), single replicate ([4]; 31.25 µM, listed as T14, 31.25 µM): 13.37% and 12.51% and 13.56%
- inhibition of fluorescent AGEs formation (BSA-抗糖化), 平均 (mean) ([4]; 31.25 µM): 13.15%
- inhibition of fluorescent AGEs formation (BSA-抗糖化), single replicate ([4]; 62.5 µM, listed as T14, 62.5 µM): 22.22% and 24.18% and 24.11%
- inhibition of fluorescent AGEs formation (BSA-抗糖化), 平均 (mean) ([4]; 62.5 µM): 23.51%
- inhibition of fluorescent AGEs formation (BSA-抗糖化), single replicate ([4]; 125 µM, listed as T14, 125 µM): 35.72% and 35.84% and 36.17%
- inhibition of fluorescent AGEs formation (BSA-抗糖化), 平均 (mean) ([4]; 125 µM): 35.91%
- inhibition of fluorescent AGEs formation (BSA-抗糖化), single replicate ([4]; 250 µM, listed as T14, 250 µM): 54.28% and 53.83% and 54.39%
- inhibition of fluorescent AGEs formation (BSA-抗糖化), 平均 (mean) ([4]; 250 µM): 54.17%
- inhibition of fluorescent AGEs formation (BSA-抗糖化), single replicate ([4]; 500 µM, listed as T14, 500 µM): 70.40% and 70.98% and 71.44%
- inhibition of fluorescent AGEs formation (BSA-抗糖化), 平均 (mean) ([4]; 500 µM): 70.94%
- inhibition of fluorescent AGEs formation (BSA-抗糖化), single replicate ([4]; 1000 µM, listed as T14, 1000 µM): 83.59% and 83.42% and 83.56%
- inhibition of fluorescent AGEs formation (BSA-抗糖化), 平均 (mean) ([4]; 1000 µM): 83.53%
- inhibition of fluorescent AGEs formation (BSA-抗糖化), single replicate ([4]; 2000 µM, listed as T14, 2000 µM): 91.04% and 91.39% and 91.09%
- inhibition of fluorescent AGEs formation (BSA-抗糖化), 平均 (mean) ([4]; 2000 µM): 91.17%
- inhibition of fluorescent AGEs formation (BSA-抗糖化), single replicate ([4]; 4000 µM (series head 'T9 4000µM', 2-fold dilutions), listed as T14): 95.57% and 95.55% and 95.41%
- inhibition of fluorescent AGEs formation (BSA-抗糖化), 平均 (mean) ([4]; 4000 µM): 95.51%
- FRAP EC1 [5, 8]: 2757.3 ± 103.8 µM
- FRAP EC1 ([5]; mean ± SD, n = 3): 2,757.3 ± 103.8 μM

Molecule: Vicenin-3 [compound 19]
- IC50 [1]: 74.8 ± 0.92 µM
- COX-2 inhibition (in words) [2]: no inhibitory effects
- COX-2 inhibition ([2]; 31.25 μM, single replicates, listed as T8, 31.25 µM): -27.09% and -25.76% and -19.42%
- COX-2 inhibition ([2]; 62.5 μM, single replicates, listed as T8, 62.5 µM): -19.03% and -34.16% and -24.78%
- COX-2 inhibition ([2]; 125 μM, single replicates, listed as T8, 125 µM): -26.82% and -40.95% and -33.02%
- COX-2 inhibition ([2]; 250 μM, single replicates, listed as T8, 250 µM): -32.94% and -46.72% and -42.57%
- COX-2 inhibition ([2]; 500 μM, single replicates, listed as T8, 500 µM): -35.30% and -54.98% and -48.28%
- COX-2 inhibition ([2]; 1000 μM, single replicates, listed as T8, 1000 µM): -23.28% and -61.50% and -50.44%
- COX-2 inhibition ([2]; 2000 μM (2mM), single replicates, listed as T8): -50.77% and -55.05% and -54.78%
- IC50 [3]: > 5000 µM
- IC50 [4]: 243 ± 12 µM
- FRAP EC1 [5, 8]: >5000 µM

Molecule: O=c1cc(-c2ccc(O)c(O)c2)oc2cc(O)c(C3OC(CO)C(O)C(O)C3O)c(O)c12 [compound 18, Luteolin-6-C-β-D-glucoside]
- ABTS scavenging rate ([1]; concentration 7.8125 (unit not given)): 55.37% and 55.07% and 56.44%
- ABTS scavenging rate ([1]; concentration 15.625 (unit not given)): 79.33% and 79.42% (2×)
- ABTS scavenging rate ([1]; concentration 31.25 (unit not given)): 99.48% (2×) and 99.43%
- ABTS scavenging rate ([1]; concentration 62.5 (unit not given)): 99.27% and 99.11% and 99.08%
- ABTS scavenging rate ([1]; concentration 125 (unit not given)): 99.06% and 98.78% and 98.90%
- ABTS scavenging rate ([1]; concentration 250 (unit not given)): 98.95% and 99.14% and 99.11%
- ABTS scavenging rate ([1]; concentration 500 (unit not given)): 99.30% and 99.22% and 99.17%
- IC50 [1]: 7.1 ± 0.1 µM
- COX-2 inhibition (in words) [2]: great COX-2 inhibition
- inhibition at 3.125 µM ([2]; 3.125 μM, single replicates): 16.9%
- COX-2 inhibition ([2]; 3.125 μM, single replicates, listed as T17, 3.125 µM): 26.59% and 29.93%
- COX-2 inhibition ([2]; 6.25 μM, single replicates, listed as T17, 6.25 µM): 36.73% and 36.77% and 59.48%
- inhibition at 12.5 µM ([2]; 12.5 μM, single replicates): 65.1%
- COX-2 inhibition ([2]; 12.5 μM, single replicates, listed as T17, 12.5 µM): 69.47% and 74.84%
- inhibition at 25 µM ([2]; 25 μM, single replicates): 74.8%
- COX-2 inhibition ([2]; 25 μM, single replicates, listed as T17, 25 µM): 75.14% and 79.85%
- inhibition at 50 µM ([2]; 50 μM, single replicates): 78.4%
- COX-2 inhibition ([2]; 50 μM, single replicates, listed as T17, 50 µM): 79.38% and 83.25%
- inhibition at 100 µM ([2]; 100 μM, single replicates): 84.8%
- COX-2 inhibition ([2]; 100 μM, single replicates, listed as T17, 100 µM): 81.46% and 83.62%
- inhibition at 200 µM ([2]; 200 μM, single replicates): 90.6%
- COX-2 inhibition ([2]; 200 μM, single replicates, listed as T17, 200 µM): 89.90% and 90.15%
- IC50 [2, 6]: 7.9 ± 2.4 µM
- IC50 [2, 7]: 10 µM and 8.56 µM and 5.24 µM
- IC50 [3]: 102 ± 6.2 µM
- IC50 [4]: 317 ± 15.6 µM
- FRAP EC1 [5, 8]: 506.6 ± 78.3 µM

Molecule: O=c1cc(-c2ccc(O)cc2)oc2c(C3OCC(O)C(O)C3O)c(O)c(C3OC(CO)C(O)C(O)C3O)c(O)c12 (stereo not drawn) [compound 17, Schaftoside]
- IC50 [1]: 75.6 ± 12.1 µM
- COX-2 inhibition (in words) [2]: no inhibitory effects
- COX-2 inhibition ([2]; 31.25 μM, single replicates, listed as T4, 31.25 µM): -26.58% and -23.72% and 26.46%
- COX-2 inhibition ([2]; 62.5 μM, single replicates, listed as T4, 62.5 µM): -5.78% and -8.50% and -9.30%
- COX-2 inhibition ([2]; 125 μM, single replicates, listed as T4, 125 µM): -21.60% and 2.72%
- COX-2 inhibition ([2]; 250 μM, single replicates, listed as T4, 250 µM): -34.33% and -33.14% and 20.94%
- COX-2 inhibition ([2]; 500 μM, single replicates, listed as T4, 500 µM): -36.70% and -25.03% and -14.74%
- COX-2 inhibition ([2]; 1000 μM, single replicates, listed as T4, 1000 µM): -40.79% and -25.81% and -34.65%
- COX-2 inhibition ([2]; 2000 μM (2mM), single replicates, listed as T4): -30.80% and -21.24% and -15.63%
- IC50 [3]: > 5000 µM
- IC50 [4]: 250 ± 4.16 µM
- FRAP EC1 [5, 8]: >5000 µM
